Laboratory results as given in patent US10054583B2, “Nuclear factor-erythroid 2 related factor 2 (NRF2) biosensors and modulators of NRF2” (TEMPLE UNIVERSITY OF THE COMMONWEALTH SYSTEM OF HIGHER …, priority 2012, dated 2018).
Entries after “also recorded” stand apart in the source; their conditions may differ.

Experiments:
Assay type in all cases: cell-based
[1] = tested on: translation of Luciferase Reporter under translational control mediated by Sg3 of Nrf2; experiment: Nrf2 translation biosensor screen: firefly luciferase reporter fused with Seg3, stop codons in between; library of 127 compounds; conditions: FIG. 3B; screen of library of 127 compounds
Excerpt: (§1) FIGS. 3A to 3D show the construction of a translation reporter system to identify compounds that derepress Nrf2 translation. FIG. 3A is a schematic representation showing that the sequence of the firefly luciferase reporter gene was fused with the Seg3 fragment to create a translation reporter system i.e. a biosensor for Nrf2. […] A small library of 127 compounds containing more than 80 known antioxidants was screened to identify potential activators of Nrf2 translation. […] HEK 293T cells were transfected with a construct a Nrf2 lacking amino acids 17-32 to prevent the degradation mediated by Keap1.
A construct containing the luciferase gene fused with the Seg3 with stop codons in between the two fragments was developed. A library of 127 well known antioxidants was screened.
A stop codon is indicated with bold letters and a dark grey shade. The sequence corresponding to sg3 is indicated in the light grey shade area. The sequence was expressed using a plasmid with a CMV promoter.

[2] = tested on: Nrf2 translation (entire Nrf2 ORF mRNA); experiment: Western blot of Nrf2 translation in HEK 293T cells transfected with Nrf2 construct lacking amino acids 17-32; conditions: for Nrf2 translation (Nrf2 protein expression by blot): FIG. 3C / FIG. 4, HEK 293T cells, Nrf2 construct lacking amino acids 17-32 (no Keap1-mediated degradation)
Excerpt: as §1
HEK293T cells were transfected with an Nrf2 construct lacking amino acids that are required for KEAP1 mediated degradation. 24 hours later the cells were treated with Apigenin in incremental doses to evaluate Nrf2 translation activation by using Western blotting.

[3] = tested on: Nrf2; experiment: Nuclear translocation of Nrf2: subcellular fractionation and Western blot of HEK293T cells transfected with wildtype Nrf2; conditions: FIG. 6; HEK293T cells with wildtype Nrf2, harvested 12 hours after treatment, cytoplasm vs nucleus
Procedure: HEK293T cells were transfected with a plasmid containing the wildtype sequence of Nrf2. After 24 hours the cells were treated with Apigenin. After additional 12 hours, the cells were harvested and subjected to subcellular fractionation. The presence of Nrf2 in the cytoplasm and nucleus was evaluated using Western blotting. Additionally, tubulin and histone 3 were identified by Western blot to validate the subcellular fractionation.

| SMILES | translation of the Luciferase Reporter under translational control mediated by Sg3 [1] | Nrf2 translation (Nrf2 protein expression by blot) [2] | Nrf2 translation (Nrf2 protein expression by blot) ([2]; listed as apigenin) | Nrf2 translation activation, dose dependence ([2]; FIG. 5, HEK293T cells, treated 24 hours after transfection with incremental doses, Western blotting) | nuclear translocation of Nrf2 [3] |
| --- | --- | --- | --- | --- | --- |
| O=c1cc(-c2ccc(O)cc2)oc2cc(O)cc(O)c12 [Apigenin] | promoted the translation of Nrf2; also recorded: increased the translation | potent activator of NRF2 translation | potent inducers of Nrf2 translation; also recorded: most potent inducer of Nrf2 translation | activates Nrf2 translation in a dose-dependent manner | nuclear translocation of Nrf2 |
| CC(C)(C)c1cc(O)ccc1O [TBHQ] | – | no effect | – | – | – |
| O=c1cc(-c2ccc(O)c(O)c2)oc2cc(O)cc(O)c12 [luteolin] | – | increase the translation of Nrf2 | – | – | – |
| O=c1c(O)c(-c2ccc(O)c(O)c2)oc2cc(O)cc(O)c12 [quercetin] | – | increase the translation of Nrf2 | – | – | – |
| Oc1ccc(C=Cc2cc(O)cc(O)c2)cc1 [resveratrol] | promoted the translation of Nrf2; also recorded: increased the translation | potent inducers of Nrf2 translation | – | – | – |
| C[S+]([O-])CCCCN=C=S (centres unmarked) [sulforaphane] | – | no effect | – | – | – |
